Data from patent publication US12344595B2, “2-amino-n-phenyl-nicotinamides as NAV1.8 inhibitors” (Merck Sharp & Dohme LLC, priority 2018, dated 2025).

Target: human Nav1.8 (Homo sapiens (Human), UniProt Q9Y5Y9)
Test: Nav1.8 Qube automated patch-clamp assay
Format: cell-based
Settings: Nav1.8 Qube Assay; human Nav1.8 channels stably expressed in HEK 293 cells
Procedure: Qube® Assay Experimental Procedure
Compounds were tested on human Nav1.8 and Nav1.5 channels stably expressed in human embryo kidney (HEK) 293 cells. Sodium current measurements on Qube® were conducted as follows: automated 384-well patch-clamp assays on the Qube® platform (Sophion Biosciences) were used to measure the inhibition of sodium flow through human Nav1.8 and Nav1.5 channels. Whole-cell voltage-clamp recordings were performed in QChips® (Sophion Biosciences) at room temperature. Nav1.8 current measurements on Qube® were obtained as follows: Nav1.8 currents were elicited with a 10 second 1 Hertz (Hz) pulse train from a holding potential of −90 millivolts (mV), delivered to the cells once per minute in the control condition (DMSO only) and after compound addition. The 1 hertz pulse train stimulation consisted of ten test pulses to 10 millivolt (mV) for 20 milliseconds (ms), each of which was followed by a 980 millisecond repolarization to −67 millivolts. At the end of the 10 second pulse train stimulation, a 5 second hyperpolarization step to −100 millivolt (mV) was used to recover Nav1.8 from fast inactivation. The peak currents elicited by the 1st and 10th test pulses were used to determine IC50 values for resting inhibition and inactivated state inhibition. Nav1.5 current measurements on Qube® were obtained as follows: Nav1.5 currents were elicited with a 20 second 3 Hertz pulse train in the control condition (DMSO only) and after compound addition. The pulse train consisted of sixty 20 millisecond test pulses to 0 millivolt from a holding potential of −80 millivolt (mV). The average peak currents elicited by the last 3 test pulses were used to determine IC50 values for Nav1.5 inhibition.
The following buffers were used for the Qube® recordings: External buffer for Nav1.8 Qube® recording: 150 NaCl, 2 CaCl2, 5 KCl, 1 Mg Cl2, 10 HEPES, 12 Dextrose; External buffer for Qube® Nav1.5 recording: 120 N-Methyl-D-Glucamine, 40 NaCl, 1 KCl, 2.7 CaCl2, 5 HEPES, 0.5 MgCl2; and Internal buffer for Qube® recording: 120 CsF, 30 CsCl, 10 EGTA, 5 HEPES, 5 NaF, 2 MgCl2.
For all Qube® experiments offline analysis was used to determine percent inhibition as a function of drug concentration. IC50 values were determined by fitting to the Hill equation.

Sequence of human Nav1.8 (Q9Y5Y9 whole entry): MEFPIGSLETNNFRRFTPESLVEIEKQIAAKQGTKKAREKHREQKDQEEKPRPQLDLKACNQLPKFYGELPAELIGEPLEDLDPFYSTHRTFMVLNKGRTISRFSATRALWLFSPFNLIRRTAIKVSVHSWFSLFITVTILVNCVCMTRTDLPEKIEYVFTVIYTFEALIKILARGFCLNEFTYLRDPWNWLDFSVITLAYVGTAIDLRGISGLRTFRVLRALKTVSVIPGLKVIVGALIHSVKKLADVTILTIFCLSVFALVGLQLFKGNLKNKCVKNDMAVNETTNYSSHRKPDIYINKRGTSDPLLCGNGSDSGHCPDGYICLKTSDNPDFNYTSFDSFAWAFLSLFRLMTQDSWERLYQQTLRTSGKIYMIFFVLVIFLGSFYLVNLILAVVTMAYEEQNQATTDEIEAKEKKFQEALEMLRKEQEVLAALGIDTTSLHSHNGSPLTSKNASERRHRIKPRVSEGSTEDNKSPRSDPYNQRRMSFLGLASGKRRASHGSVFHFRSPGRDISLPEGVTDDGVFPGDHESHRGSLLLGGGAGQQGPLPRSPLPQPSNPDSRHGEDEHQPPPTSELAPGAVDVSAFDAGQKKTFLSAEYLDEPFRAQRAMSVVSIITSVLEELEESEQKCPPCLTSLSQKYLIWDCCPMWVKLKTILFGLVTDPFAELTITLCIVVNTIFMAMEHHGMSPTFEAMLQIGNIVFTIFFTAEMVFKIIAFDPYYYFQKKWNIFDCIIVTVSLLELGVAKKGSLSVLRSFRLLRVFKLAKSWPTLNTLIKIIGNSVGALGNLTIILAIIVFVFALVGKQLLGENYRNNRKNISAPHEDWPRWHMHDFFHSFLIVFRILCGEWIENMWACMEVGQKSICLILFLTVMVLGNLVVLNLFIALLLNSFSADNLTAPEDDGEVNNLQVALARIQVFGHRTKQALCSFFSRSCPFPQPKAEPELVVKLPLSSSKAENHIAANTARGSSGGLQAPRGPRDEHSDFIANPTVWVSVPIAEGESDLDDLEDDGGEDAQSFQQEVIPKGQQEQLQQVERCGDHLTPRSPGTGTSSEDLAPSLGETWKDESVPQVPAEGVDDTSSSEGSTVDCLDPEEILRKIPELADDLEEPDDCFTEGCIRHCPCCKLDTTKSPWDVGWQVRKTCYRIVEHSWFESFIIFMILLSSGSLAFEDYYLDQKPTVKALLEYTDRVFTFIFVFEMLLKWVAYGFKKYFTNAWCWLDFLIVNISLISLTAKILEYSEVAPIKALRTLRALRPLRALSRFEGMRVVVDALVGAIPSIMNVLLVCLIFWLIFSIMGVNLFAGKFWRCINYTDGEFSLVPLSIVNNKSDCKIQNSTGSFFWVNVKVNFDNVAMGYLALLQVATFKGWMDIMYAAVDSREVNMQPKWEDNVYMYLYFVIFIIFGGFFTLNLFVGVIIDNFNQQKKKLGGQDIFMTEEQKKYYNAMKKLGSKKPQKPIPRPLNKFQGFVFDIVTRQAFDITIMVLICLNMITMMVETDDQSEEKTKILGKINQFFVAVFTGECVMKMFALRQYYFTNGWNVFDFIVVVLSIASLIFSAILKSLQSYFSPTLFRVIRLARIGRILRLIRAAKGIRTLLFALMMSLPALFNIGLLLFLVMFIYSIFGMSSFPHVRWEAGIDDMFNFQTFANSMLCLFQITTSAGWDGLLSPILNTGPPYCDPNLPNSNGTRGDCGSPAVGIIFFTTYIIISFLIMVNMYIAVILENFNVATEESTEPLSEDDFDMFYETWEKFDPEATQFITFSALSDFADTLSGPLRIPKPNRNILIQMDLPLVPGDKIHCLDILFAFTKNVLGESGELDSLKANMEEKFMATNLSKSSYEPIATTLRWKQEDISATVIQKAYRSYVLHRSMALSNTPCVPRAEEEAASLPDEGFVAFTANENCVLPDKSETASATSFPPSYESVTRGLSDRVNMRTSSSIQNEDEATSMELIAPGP

Row | SMILES | IC50 [nM]
1 | CN1C2CCC1CN(c1ncc(C(F)(F)F)cc1C(=O)Nc1cccc(S(N)(=O)=O)c1)C2 (racemic) [Example 71, 2-[rac-(1S,5R and 1R,5S)-8-methyl-3,8-diazabicyclo[3.2.1]-octan-3-yl]-N-(3-sulfamoylphenyl)-5-(trifluoromethyl) pyridine-3-carboxamide] | 5550
2 | CC1CN(c2ncc(C(F)(F)F)cc2C(=O)Nc2ccc3c(c2)S(=O)(=O)NC3)CCC1(F)F (single isomer, unassigned) [Example 113, 2-[(3S or 3R)-4,4-difluoro-3-methyl-1-piperidyl]-N-(1,1-dioxo-2,3-dihydro-1,2-benzothiazol-6-yl)-5-(trifluoromethyl) pyridine-3-carboxamide] | 73
3 | CC1CN(c2ncc(C(F)(F)F)cc2C(=O)Nc2cccc(S(N)(=O)=O)c2)CCC1(F)F (single isomer, unassigned) [Example 123, (R or S)-2-(4,4-Difluoro-3-methylpiperidin-1-yl)-N-(3-sulfamoylphenyl)-5-(trifluoromethyl)nicotinamide] | 3
4 | NS(=O)(=O)c1cccc(NC(=O)c2cc(C(F)(F)F)cnc2N2CCCC3(C2)CC3(F)F)c1 (single isomer, unassigned) [Example 126, 2-[(3S or 3R)-2,2-difluoro-5-azaspiro[2.5]-octan-5-yl]-N-(3-sulfamoylphenyl)-5-(trifluoromethyl)-pyridine-3-carboxamide] | 14
5 | NS(=O)(=O)c1cccc(NC(=O)c2cc(C(F)(F)F)cnc2N2CCCC3(C2)CC3(F)F)c1 (single isomer, unassigned) [Example 127, 2-[(3R or 3S)-2,2-difluoro-5-azaspiro[2.5]-octan-5-yl]-N-(3-sulfamoylphenyl)-5-(trifluoromethyl)-pyridine-3-carboxamide] | 110
6 | NS(=O)(=O)c1cccc(NC(=O)c2cc(C(F)(F)F)cnc2N2CC3CCC3(C(F)(F)F)C2)c1 (single isomer, unassigned) [Example 130, N-(3-sulfamoylphenyl)-5-(trifluoromethyl)-2-[(1R,5R or 1S,5S)-1-(trifluoromethyl)-3-azabicyclo[3.2.0]heptan-3-yl]pyridine-3-carboxamide] | 16

Now from value to molecule:

Row | IC50 [nM] | SMILES
7 | 12 | NS(=O)(=O)c1cccc(NC(=O)c2cc(C(F)(F)F)cnc2N2CC3CCC(C3)C2)c1 (racemic) [Example 45, 2-[rac-3-azabicyclo[3.2.1]octan-3-yl]-N-(3-sulfamoyl-phenyl)-5-(trifluoro-methyl)pyridine-3-carboxamide]
8 | 72 | CC1CN(c2ncc(C(F)(F)F)cc2C(=O)Nc2ccc3c(c2)S(=O)(=O)NC3)CCC1(F)F (single isomer, unassigned) [Example 112, 2-[(3R or 3S)-4,4-difluoro-3-methyl-1-piperidyl]-N-(1,1-dioxo-2,3-dihydro-1,2-benzothiazol-6-yl)-5-(trifluoromethyl) pyridine-3-carboxamide]
9 | 15 | CC1CN(c2ncc(C(F)(F)F)cc2C(=O)Nc2cccc(S(N)(=O)=O)c2)CCC1(F)F (single isomer, unassigned) [Example 124, (S or R)-2-(4,4-difluoro-3-methylpiperidin-1-yl)-N-(3-sulfamoylphenyl)-5-(trifluoromethyl)nicotinamide]
10 | 14 | CC12CCN(c3ncc(C(F)(F)F)cc3C(=O)Nc3cccc(S(N)(=O)=O)c3)CC1C2(F)F (single isomer, unassigned) [Example 128, 2-[(1R,6R or 1S,6S)-7,7-difluoro-6-methyl-3-azabicyclo[4.1.0]heptan-3-yl]-N-(3-sulfamoyl-phenyl)-5-(trifluoro-methyl)-pyridine-3-carboxamide]
11 | 63 | CC12CCN(c3ncc(C(F)(F)F)cc3C(=O)Nc3cccc(S(N)(=O)=O)c3)CC1C2(F)F (single isomer, unassigned) [Example 129, 2-[(1S,6S or 1R,6R)-7,7-difluoro-6-methyl-3-azabicyclo[4.1.0]heptan-3-yl]-N-(3-sulfamoyl-phenyl)-5-(trifluoro-methyl)pyridine-3-carboxamide]
